# Laboratory results reported in PubChem BioAssay (NCI).
#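 GI50 is the concentration that inhibits growth by half. At the TGI there is no net growth.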
# Key:
# Experiment in all cases: DTP human tumour cell line panel, 384-well format
# [1] = system: MCF7 breast
# [2] = system: HOP-62 NSCLC
# [3] = system: NCI-H522 lung
# [4] = system: DU-145 prostate
# [5] = system: BT-549 breast
# [6] = system: SW-620 colon
# [7] = system: SF-539 CNS
# [8] = system: RPMI-8226 leukemia
# [9] = system: MOLT-4 leukemia
# [10] = system: PC-3 prostate
# [11] = system: HCC-2998 colon
# [12] = system: HCT-116 colon
# [13] = system: ACHN renal
# [14] = system: MDA-MB-468 breast
# [15] = system: UO-31 renal
# [16] = system: A498 renal
# [17] = system: OVCAR-4 ovarian
# [18] = system: NCI-H322M lung
# [19] = system: HL-60(TB) leukemia
# [20] = system: COLO 205 colon
# [21] = system: SK-OV-3 ovarian
# [22] = system: SK-MEL-2 melanoma
# [23] = system: HT29 colon
# [24] = system: U251 glioblastoma
# [25] = system: MDA-MB-231 breast
# [26] = system: A549 NSCLC
# [27] = system: NCI-H23 lung
# [28] = system: K-562 leukemia
# [29] = system: OVCAR-5 ovarian
# [30] = system: CAKI-1 renal
# [31] = system: T-47D breast
# [32] = system: SR leukemia
# [33] = system: KM12 colon
# [34] = system: NCI-H226 lung
# [35] = system: 786-0 renal
# [36] = system: HCT-15 colon
# [37] = system: MDA-MB-435 melanoma
# [38] = system: NCI-H460 NSCLC
# [39] = system: RXF 393 renal
# [40] = system: OVCAR-8 ovarian
# [41] = system: SF-268 CNS
# [42] = system: M14 melanoma
# [43] = system: LOX IMVI melanoma
# [44] = system: SK-MEL-5 melanoma
# [45] = system: CCRF-CEM leukemia
# [46] = system: HOP-92 NSCLC
# [47] = system: SF-295 CNS
# [48] = system: UACC-62 melanoma
# [49] = system: OVCAR-3 ovarian
# [50] = system: SK-MEL-28 melanoma
# [51] = system: UACC-257 melanoma
# [52] = system: TK-10 renal
# [53] = system: MALME-3M melanoma
# [54] = system: NCI/ADR-RES ovarian
# [55] = system: SNB-19 CNS
# [56] = system: SN12C renal
# [57] = system: IGROV1 ovarian
smiles,measurement,setting,value
Cc1c(C)n(CCCN2CCN(C)CC2)c2ccc(Oc3cccc(C(=O)N4CCN(CCc5ccc(F)cc5)CC4)c3)cc12,GI50,[1],1720 nM
same,TGI,[1],3110 nM
same,GI50,[2],1630 nM
same,TGI,[2],3000 nM
same,GI50,[3],1680 nM
same,TGI,[3],3050 nM
same,GI50,[4],1730 nM
same,TGI,[4],3130 nM
same,GI50,[5],1320 nM
same,TGI,[5],2600 nM
same,GI50,[6],1770 nM
same,TGI,[6],3190 nM
same,GI50,[7],1610 nM
same,TGI,[7],2980 nM
same,GI50,[8],1300 nM
same,TGI,[8],2560 nM
same,GI50,[9],1810 nM
same,TGI,[9],3200 nM
same,GI50,[10],1650 nM
same,TGI,[10],3020 nM
same,GI50,[11],1430 nM
same,TGI,[11],2740 nM
same,GI50,[12],1470 nM
same,TGI,[12],2800 nM
same,GI50,[13],1610 nM
same,TGI,[13],2980 nM
same,GI50,[14],1390 nM
same,TGI,[14],2690 nM
same,GI50,[15],1610 nM
same,TGI,[15],2970 nM
same,GI50,[16],1520 nM
same,TGI,[16],2860 nM
same,GI50,[17],1750 nM
same,TGI,[17],3130 nM
same,GI50,[18],1640 nM
same,TGI,[18],3010 nM
same,GI50,[19],2030 nM
same,TGI,[19],3460 nM
same,GI50,[20],1680 nM
same,TGI,[20],3070 nM
same,GI50,[21],1520 nM
same,TGI,[21],2860 nM
same,GI50,[22],1760 nM
same,TGI,[22],3140 nM
same,GI50,[23],1450 nM
same,TGI,[23],2800 nM
same,GI50,[24],1700 nM
same,TGI,[24],3100 nM
same,GI50,[25],1910 nM
same,TGI,[25],3320 nM
same,GI50,[26],1600 nM
same,TGI,[26],2980 nM
same,GI50,[27],1500 nM
same,TGI,[27],2830 nM
same,GI50,[28],1430 nM
same,TGI,[28],2760 nM
same,GI50,[29],1660 nM
same,TGI,[29],3030 nM
same,GI50,[30],1510 nM
same,TGI,[30],2850 nM
same,GI50,[31],1490 nM
same,TGI,[31],2820 nM
same,GI50,[32],1460 nM
same,TGI,[32],2790 nM
same,GI50,[33],1720 nM
same,TGI,[33],3120 nM
same,GI50,[34],1590 nM
same,TGI,[34],2940 nM
same,GI50,[35],1520 nM
same,TGI,[35],2870 nM
same,GI50,[36],1430 nM
same,TGI,[36],2750 nM
same,GI50,[37],1720 nM
same,TGI,[37],3110 nM
same,GI50,[38],1850 nM
same,TGI,[38],3320 nM
same,GI50,[39],1420 nM
same,TGI,[39],2730 nM
same,GI50,[40],1620 nM
same,TGI,[40],3000 nM
same,GI50,[41],1780 nM
same,TGI,[41],3180 nM
same,GI50,[42],1600 nM
same,TGI,[42],2960 nM
same,GI50,[43],2090 nM
same,TGI,[43],3540 nM
same,GI50,[44],1280 nM
same,TGI,[44],2550 nM
same,GI50,[45],1630 nM
same,TGI,[45],2990 nM
same,GI50,[46],1430 nM
same,TGI,[46],2740 nM
same,GI50,[47],1800 nM
same,TGI,[47],3200 nM
same,GI50,[48],1780 nM
same,TGI,[48],3170 nM
same,GI50,[49],1610 nM
same,TGI,[49],2970 nM
same,GI50,[50],1680 nM
same,TGI,[50],3060 nM
same,GI50,[51],889 nM
same,TGI,[51],2100 nM
same,GI50,[52],1590 nM
same,TGI,[52],2940 nM
same,GI50,[53],1410 nM
same,TGI,[53],2710 nM
same,GI50,[54],1570 nM
same,TGI,[54],2920 nM
same,GI50,[55],1710 nM
same,TGI,[55],3100 nM
same,GI50,[56],1630 nM
same,TGI,[56],2990 nM
same,GI50,[57],1580 nM
same,TGI,[57],2940 nM
